According to patent US11723987B2, “Double suicide gene vector systems for stem cells” (UNIVERSITY OF MIAMI, priority 2016, dated 2023):
Entries after “also recorded” stand apart in the source; their conditions may differ.

Tests used:
λH1 cells (H1.1 cells) = test: MTT kill curve / pro-drug exposure of undifferentiated suicide-gene modified hESc; assay type: cell-based, human; details: for exposure time after which most λH1 cells die: 10 μM CB1954, 100 μM GCV (FIG. 8c); for ablation of H1.1 cells: after 7 days of exposure (FIG. 2); for sensitivity of undifferentiated modified clones to pro-drug: undifferentiated state
Description: Clones of the hESc line H1 containing both constructs were selected using Puro (for plasmid L) and Neo (for plasmid F). We used electroporation of the linearized plasmids followed by Puro+Neo selection to achieve stable integration of both cassettes (λH1). Integration was confirmed by PCR, and positive clones were expanded and stocked in liquid N2. ˜25 double resistant clones were handpicked, expanded under antibiotic selection and frozen in liquid N2. A typical undifferentiated colony of one such clone, propagated in Puro+Neo to maintain selective pressure, was imaged. […] Aliquots were screened by genomic PCR to confirm the integration of both constructs (data not shown). qRT-PCR was performed to determine which clones had higher transgene (HSV-TK and NTR) expression. Clone A (H1.1 from now on) was selected for further testing based on the results of these assays. A kill curve using different dosages for GCV (0.01 to 1000 μM) and CB1954 (0.1 to 300 μM) was done for H1.1. Cell death was quantified by MTT assays on H1.1 and the parental wild-type H1 line. These assays helped us determine the optimal concentration of each pro-drug that leads to complete ablation of undifferentiated H1.1 cells while preserving the viability of the parental line within 7 days. Such concentration was in the range of 10-100 μM for GCV and 50-100 μM for CB1954, as previously reported in the literature for other cell types^26,54,55. The integration of these constructs had no detectable effects in terms of pluripotency marker expression (TRA-1-60, SSEA3, SSEA4, Oct3/4, Nanog) vs. the unmodified parental line H1, as determined by qRT-PCR, immunofluorescence and FACS analyses (data not shown).
A kill curve using different dosages for GCV (0.01 to 1000 μM) and CB1954 (0.1 to 300 μM) was done for λH1 and the parental H1 lines. Cell death was quantified by MTT [3-(4,5-dimethylthiazol-2-yl)-2,5-diphenyltetrazolium bromide] assays, which helped us determine the optimal concentration of each pro-drug that leads to ablation of undifferentiated λH1 cells while preserving the viability of the parental line within 7 days. Such concentration was in the range of 10-100 μM for both GCV and CB1954 (FIG. 8a), as previously reported in the literature for other cell types (21, 22). We used 10 μM for CB1954 and 100 μM of GCV for all subsequent experiments.
hESc (H1, National Stem Cell Registry #WA01, passage 35-45) were cultured as described in Schuldiner et al., PNAS USA 97: 11307-11312 (2000) using mTeSR™ (STEMCELL Technologies, Vancouver, Canada). […] MTT (3-(4,5-dimethylthiazol-2-yl)-2,5-Diphenyltetrazolium Bromide) is a reagent which is converted from a soluble tetrazolium to its insoluble formazan form via the activity of mitochondrial NAD(P)H-dependent oxidoreductase activity. This can be used to evaluate growth and proliferation of hESC colonies. MTT growth assays were performed for the sensitivity of transfected colonies to neomycin, puromycin, GCV and CB1954 at varying concentrations as previously described.

teratomas from λH1 cells = test: Teratoma formation/elimination in immunodeficient mice xenotransplanted with undifferentiated λH1 cells; assay type: in vivo, NOD-SCID mice
Experimental: In order to test whether our suicide gene strategy works as intended in vivo, 5×10^6 undifferentiated λH1 cells were transplanted subcutaneously in the left posterior dorsal flank of 5-6-week-old immunodeficient NOD-SCID mice. These conditions are known to result in the formation of teratomas within 6-9 weeks. Groups were assigned as follows: • 1. Control (no treatment): 3 mice • 2. Peri-transplantation treatment with GCV (40 mg/kg of body weight; 5 days, starting the 7th day after transplantation): 4 mice • 3. Peri-transplantation treatment with CB1954 (20 mg/kg of body weight; 5 days, starting the 7th day after transplantation): 4 mice
As described in the literature, tumors could be manually palpated and measured using calipers in the control group starting at week 6-7. At week 10, one of the mice was euthanized for histopathological characterization of the teratoma. Starting on week 11, we treated the remaining two mice with a combination of GCV and CB1954 to test the hypothesis that pro-drug administration would eliminate already formed tumors.
Two mice in this group were euthanized at this point, showing no evidence of tumors (data not shown). […] This could be due to either the carry-over of residual hESc escapees that survived the initial GCV regimen, or to the development of GCV-resistant mutations in HSV-TK, as described in the literature. To test these two hypotheses, we re-treated these animals with ganciclovir in a 5-day drug/2-day rest regimen for the following two weeks. If the reason for the appearance of these late-onset tumors was resistance to the drug, we should continue to observe tumor growth despite the treatment; in contrast, if they were derived from surviving escapees, we might see tumor recession.
All animal experiments were conducted under the supervision of the University of Miami Institutional Animal Care and Use Committee (IACUC). NOD-SCID mice (5-6 weeks old; Jackson Laboratories, Bar Harbour, Me.) were housed in […] pathogen-free (SPF) conditions at the Division of Veterinary Resources (DVR). 5×10^6 hESc were resuspended in 50 μl mTeSR supplemented with […] of the ROCK inhibitor Y-27632A, and subsequently mixed with undiluted Matrigel of equal volume. The cell suspension was injected into the subcutis of the left posterior dorsal flank of the animal. Tumor growth was monitored with a caliper. Mice were euthanized after the observation/re-treatment period, as described in the Results section. Euthanized animals were subject to general observation. The injection site was inspected and tumor tissue, if present, was collected and processed for histopathological analysis. Lungs, liver spleen and pancreas were also harvested for histological analysis of potential tumor invasion.

parental H1 hESc line = test: MTT kill curve / pro-drug exposure of parental unmodified hESc; assay type: cell-based, human; details: up to 7 days of exposure
Description: Clones of the hESc line H1 containing both constructs were selected using Puro (for plasmid L) and Neo (for plasmid F). We used electroporation of the linearized plasmids followed by Puro+Neo selection to achieve stable integration of both cassettes (λH1). Integration was confirmed by PCR, and positive clones were expanded and stocked in liquid N2. ˜25 double resistant clones were handpicked, expanded under antibiotic selection and frozen in liquid N2. A typical undifferentiated colony of one such clone, propagated in Puro+Neo to maintain selective pressure, was imaged. […] Cell death was quantified by MTT assays on H1.1 and the parental wild-type H1 line. […] The integration of these constructs had no detectable effects in terms of pluripotency marker expression (TRA-1-60, SSEA3, SSEA4, Oct3/4, Nanog) vs. the unmodified parental line H1, as determined by qRT-PCR, immunofluorescence and FACS analyses (data not shown).
A kill curve using different dosages for GCV (0.01 to 1000 μM) and CB1954 (0.1 to 300 μM) was done for λH1 and the parental H1 lines. Cell death was quantified by MTT [3-(4,5-dimethylthiazol-2-yl)-2,5-diphenyltetrazolium bromide] assays, which helped us determine the optimal concentration of each pro-drug that leads to ablation of undifferentiated λH1 cells while preserving the viability of the parental line within 7 days. […]

tumor cell lines = details: Prof. Searle, personal communication; cited from earlier work

| Molecule | exposure time after which most λH1 cells die (λH1 cells (H1.1 cells)) | ablation of H1.1 cells (λH1 cells (H1.1 cells)) | sensitivity of undifferentiated modified clones to pro-drug (λH1 cells (H1.1 cells)) | tumor formation after peri-transplantation treatment with CB1954 (teratomas from λH1 cells; 20 mg/kg, 5 days, starting the 7th day after transplantation, 11 weeks into the follow-up) | sensitivity of parental H1 line to pro-drug (parental H1 hESc line) | optimal concentration of pro-drug that leads to ablation of undifferentiated modified cells while preserving the viability of the parental line (λH1 cells (H1.1 cells); within 7 days, MTT assay, kill curve GCV 0.01 to 1000 μM, CB1954 0.1 to 300 μM) | tumor detection after peri-transplantation treatment with GCV (teratomas from λH1 cells; 40 mg/kg, 5 days, starting the 7th day after transplantation, up to week 10) | tumors after GCV re-treatment (teratomas from λH1 cells; 5-day drug/2-day rest regimen, 2-week course, one tumor >250 mm^3 at initiation (FIG. 11b)) | late-onset tumors in GCV-pretreated mice (teratomas from λH1 cells; two remaining mice, additional week after week 10) | fold lower CB1954 concentration to which cells are sensitized vs the native enzyme (tumor cell lines) |
| --- | --- | --- | --- | --- | --- | --- | --- | --- | --- | --- |
| NC(=O)c1cc(N2CC2)c([N+](=O)[O-])cc1[N+](=O)[O-] [CB1954, 5-(aziridin-1-yl)-2,4-dinitrobenzamide] | 3 days | 100% | sensitive | none of the animals in the third group (treated in the peri-transplantation period with CB1954) showed signs of tumor formation | largely insensitive; also recorded: resistant; also recorded: remain largely unscathed |  |  |  |  |  |
| Nc1nc(O)c2ncn(COC(CO)CO)c2n1 [GCV, ganciclovir] | 7 days | 100% | sensitive |  | largely insensitive; also recorded: resistant; also recorded: remain largely unscathed | 10 to 100 µM | No tumors could be detected | both tumors virtually disappeared | the tumors grew significantly in both mice |  |
| T41L/N71S: double mutant of E. coli nitroreductase (NTR, nfsB) with enhanced kinetics of CB1954 activation (protein, UniProt P38489 1-217, looked up, variant T41L N71S) Oxygen-insensitive NAD(P)H …: MDIISVALKRHSTKAFDASKKLTPEQAEQIKTLLQYSPSSLNSQPWHFIVASTEEGKARVAKSAAGNYVFSERKMLDASHVVVFCAKTAMDDVWLKLVVDQEDADGRFATPEAKAANDKGRKFFADMHRKDLHDDAEWMAKQVYLNVGNFLLGVAALGLDAVPIEGFDAAILDAEFGLKEKGYTSLVVVPVGHHSVEDFNATLPKSRLPQNITLTEV |  |  |  |  |  |  |  |  |  | ~15 fold |
